Test results taken from paper PMC8958505, “Discovery of Potential Neuroprotective Agents against Paclitaxel-Induced Peripheral Neuropathy” (Journal of Medicinal Chemistry, 2022).

Legend:
primary cortical neurons [1] = test: Synaptogenesis assay of primary cortical neurons (image-based HCS) against paclitaxel-induced neurotoxicity; assay type: cell-based, mouse; settings: for activity at 0.01 µM / activity at 1 µM: Mus musculus, Primary cortical neuron; for activity at 0.01 µM: read-out: A: Synaptogenesis (% of control) of test compound (10 nM) + paclitaxel (1 μM); for activity at 1 µM: read-out: B: Synaptogenesis (% of control) of test compound (1000 nM) + paclitaxel (1 μM)
Text: (§1) Herein, we wish to report that an in vitro neurite outgrowth assay of cortical neurons integrated with an image-based high-content screening (HCS) platform is used to evaluate a commercially available library of 78 minoxidil-related derivatives,[22] leading to the identification of a series of analogues able to prevent or alleviate paclitaxel-induced neurotoxicity. The project began with screening compounds with the primary culture of cortical neurons from neonatal mice. More specifically, cerebral cortex neurons cultured from P0 C57BL/6J mouse pups were incubated with a test compound (10 and 1000 nM) prior to paclitaxel (1 μM) treatment. Subsequently, both neurite outgrowth and synaptogenesis were measured to evaluate the test compounds’ neuroprotective capacity. […] This unique feature is preserved for the core-structure screening of our in-house library in the following subject. Moreover, the substituent at the C4 position appears flexible in terms of structural diversity. Collectively, CSV0A024807, the only one displaying the best neuroprotective potency on both neurite outgrowth and synaptogenesis assays, was thus elected as a potential hit compound for further development.
(§2) Primary cortical or DRG cells were fixed with 4% paraformaldehyde for 15 min following compound and paclitaxel treatment. After washing with PBS, the fixed cells were permeabilized with PBS containing 0.05% Triton X-100 for 20 min and then blocked with commercial blocking buffer (#GTX30963; GeneTex, USA) at room temperature for 1 h. Subsequently, the cortical cells were stained for the extending processes and synaptic puncta by using anti-MAP2 (#MBS502140, 1:500; Mybiosource, USA) and anti-synaptophysin (#ab32127, 1:500; Abcam, UK) overnight. DRG cells were stained for the neurite and neuron nucleus by using anti-β III tubulin (#D71G9, 1:600; Cell Signaling, USA) and anti-NeuN monoclonal antibody (#MAB377, 1:400; Millipore, USA) overnight. On the second day, the samples were washed for 30 min with wash buffer and incubated with secondary antibodies (Alexa-488, 647 1:600; Thermo Fisher, USA) and 4 μg/mL Hoechst 33258 (#94403-1ML, 1:100; Merck, USA) at room temperature for 1 h. In the initial experiments of screening the potential neuroprotective compound for CIPN, ImageXpress^Micro (IXM) high-content imaging system (Molecular Devices, USA) driven by MetaXpress software was used. Images of treated cells were automatically acquired by using a 10× objective. Twenty-one images per well were taken in each of three channels (DAPI, FITC, and Cy5) to create a whole view of the entire neural network. The integrity of the neural network was evaluated using TIF images by importing them into MetaXpress software for analysis using the module for multiparameter, such as Neurite Outgrowth, Cell Scoring, and Transfluor. Furthermore, the score of synaptogenesis was analyzed in AcuityXpress software (Molecular Devices, USA).

primary cortical neurons [2] = test: Neurite outgrowth assay of primary cortical neurons (image-based HCS) against paclitaxel-induced neurotoxicity; assay type: cell-based, mouse; settings: for activity at 0.01 µM / activity at 1 µM: Mus musculus, Primary cortical neuron; for activity at 0.01 µM: read-out: C: Neurite outgrowth (% of control) of test compound (10 nM) + paclitaxel (1 μM); for activity at 1 µM: read-out: D: Neurite outgrowth (% of control) of test compound (1000 nM) + paclitaxel (1 μM)
Text: as §1, §2

[3] = test compound 10 nM + paclitaxel 1 μM, mean ± SE
[4] = test compound 1000 nM + paclitaxel 1 μM, mean ± SE

Structure (SMILES) | activity at 0.01 µM (primary cortical neurons [1]; [3]) [%] | activity at 1 µM (primary cortical neurons [1]; [4]) [%] | activity at 0.01 µM (primary cortical neurons [2]; [3]) [%] | activity at 1 µM (primary cortical neurons [2]; [4]) [%] | further results
CN(C)c1ccc(/C=N/Nc2cc(N3CCCCC3)nc(N3CCCCC3)n2)cc1 [CSV0A041618] | 83 ± 2 | 64 ± 7 | 55 ± 2 | 55 ± 2 | attenuation of synaptogenesis inhibited by paclitaxel (in words) (primary cortical neurons [1]; test compound 10 and 1000 nM prior to paclitaxel 1 μM, Figure 1A): significantly attenuated
O=[N+]([O-])c1ccc(/C=N/Nc2cc(N3CCCCCC3)nc(N3CCCCCC3)n2)cc1 [CSV0A012753] | 60 ± 1 | 61 ± 4 | 77 ± 7 | 75 ± 7 | 
O=C(CCc1ccccc1)NNc1cc(N2CCOCC2)nc(N2CCOCC2)n1 [CSV0C009114] |  |  |  |  | activity at 0.01 µM (primary cortical neurons [1]): 48 ± 5%; activity at 1 µM (primary cortical neurons [1]): 49 ± 3%; activity at 0.01 µM (primary cortical neurons [2]): 70 ± 7%; activity at 1 µM (primary cortical neurons [2]): 65 ± 3%
CN(C)c1cc(NNC(=O)c2ccc(C(C)(C)C)cc2)nc(N(C)C)n1 [CSV0B002001] | 35 ± 3 | 35 ± 3 | 44 ± 3 | 44 ± 3 | 
Oc1ccc(Cl)cc1/C=N/Nc1cc(N2CCCC2)nc(N2CCCC2)n1 [CSV0A041619] |  |  |  |  | activity at 0.01 µM (primary cortical neurons [1]): 54 ± 0.03%; activity at 1 µM (primary cortical neurons [1]): 62 ± 2%; activity at 0.01 µM (primary cortical neurons [2]): 62 ± 2%; activity at 1 µM (primary cortical neurons [2]): 61 ± 2%
CCN(CC)c1cc(NNC(=O)c2ccccc2OC)nc(N(CC)CC)n1 [CSV0A008237] | 45 ± 4 | 45 ± 8 | 56 ± 1 | 50 ± 9 | 
CN(C)c1cc(N/N=C/c2ccccc2O)nc(N(C)C)n1 [CSV0A034003] |  |  |  |  | A: Synaptogenesis (% of control) of test compound (10 nM) + paclitaxel (1 μM) (primary cortical neurons [1]; [3]): 67±5 % of control; B: Synaptogenesis (% of control) of test compound (1000 nM) + paclitaxel (1 μM) (primary cortical neurons [1]; [4]): 66±9 % of control; C: Neurite outgrowth (% of control) of test compound (10 nM) + paclitaxel (1 μM) (primary cortical neurons [2]; [3]): 61±3 % of control; D: Neurite outgrowth (% of control) of test compound (1000 nM) + paclitaxel (1 μM) (primary cortical neurons [2]; [4]): 62±3 % of control
CN(C)c1cc(NNC(=O)CCc2ccccc2)nc(N(C)C)n1 [CSV0B008273] |  |  |  |  | activity at 0.01 µM (primary cortical neurons [1]): 39 ± 2%; activity at 1 µM (primary cortical neurons [1]): 36 ± 2%; activity at 0.01 µM (primary cortical neurons [2]): 46 ± 3%; activity at 1 µM (primary cortical neurons [2]): 53 ± 2%
COc1ccc(/C=N/Nc2cc(N(C)C)nc(N(C)C)n2)cc1 [CSV0A034004] | 65 ± 6 | 76 ± 2 | 54 ± 7 | 55 ± 4 | 
Oc1ccccc1/C=N/Nc1cc(N2CCCCC2)nc(N2CCCCC2)n1 [CSV0B023377] | 42 ± 1 | 42 ± 3 | 57 ± 2 | 57 ± 4 | 
CCN(CC)c1cc(NNC(=O)CCc2ccccc2)nc(N(CC)CC)n1 [CSV0B009488] | 38 ± 3 | 34 ± 3 | 35 ± 4 | 44 ± 3 | 
CCCN(CCC)c1cc(N/N=C/c2ccccc2OC)nc(N(CCC)CCC)n1 [CSV0A011999] | 33 ± 4 | 37 ± 2 | 45 ± 5 | 53 ± 3 | 
O=C(CCc1ccccc1)NNc1cc(N2CCCCC2)nc(N2CCCCC2)n1 [CSV0A062711] |  |  |  |  | activity at 0.01 µM (primary cortical neurons [1]): 36 ± 0.5%; activity at 1 µM (primary cortical neurons [1]): 28 ± 3%; activity at 0.01 µM (primary cortical neurons [2]): 80 ± 11%; activity at 1 µM (primary cortical neurons [2]): 79 ± 6%
CN(C)c1cc(NNC(=O)c2ccc(Cl)cc2)nc(N(C)C)n1 [CSV0A023089] | 38 ± 3 | 39 ± 6 | 47 ± 2 | 50 ± 5 | 
Oc1ccc(Br)cc1/C=N/Nc1cc(N2CCOCC2)nc(N2CCOCC2)n1 [CSV0A013030] | 26 ± 2 | 26 ± 3 | 76 ± 5 | 89 ± 11 | 
COc1cc(/C=N/Nc2cc(N3CCOCC3)nc(N3CCOCC3)n2)ccc1O [CSV0B002704] | 38 ± 2 | 29 ± 6 | 79 ± 7 | 65 ± 3 | 
